Reference: publication PMC10746543, “Design principles for cyclin K molecular glue degraders” (Nature Chemical Biology, 2023)
“And” between values parts separate entries of the source, which are not always exact repeats. Equal entries are not always repeated. Where two headings read alike, the source gives them in different places. One block for each compound: values may come before it.

Key:
CDK12–cyclin K and DDB1 = biological target: T1, CDK12–cyclin K and DDB1 (Homo sapiens, UniProt Q16531+Q9NYV4, K965R); test: TR-FRET ternary complex formation assay (compound titration); assay type: binding; conditions: for TR-FRET signal at compound concentration 0.468 nM / TR-FRET signal at compound concentration 2.16 nM / TR-FRET signal at compound concentration 3.6 nM / TR-FRET signal at compound concentration 7.92001 nM / TR-FRET signal at compound concentration 15.84 nM / TR-FRET signal at compound concentration 30.96 nM / TR-FRET signal at compound concentration 62.6401 nM / TR-FRET signal at compound concentration 125.28 nM / TR-FRET signal at compound concentration 244.8 nM / TR-FRET signal at compound concentration 993.601 nM / TR-FRET signal at compound concentration 2001.6 nM: raw replicate titration data
T1 construct: His6–CDK12 (a.a. 713–1,052); full-length or beta-propeller B domain deletion (ΔBPB: a.a. 396–705 deleted) constructs of His6–DDB1ΔBPB, StrepII–Avi–DDB1, or His6–Spy–DDB1; made in house; host or cells: Trichoplusia ni High Five insect cells (baculovirus)
T1 sequence (Q9NYV4 713-1052 K965R): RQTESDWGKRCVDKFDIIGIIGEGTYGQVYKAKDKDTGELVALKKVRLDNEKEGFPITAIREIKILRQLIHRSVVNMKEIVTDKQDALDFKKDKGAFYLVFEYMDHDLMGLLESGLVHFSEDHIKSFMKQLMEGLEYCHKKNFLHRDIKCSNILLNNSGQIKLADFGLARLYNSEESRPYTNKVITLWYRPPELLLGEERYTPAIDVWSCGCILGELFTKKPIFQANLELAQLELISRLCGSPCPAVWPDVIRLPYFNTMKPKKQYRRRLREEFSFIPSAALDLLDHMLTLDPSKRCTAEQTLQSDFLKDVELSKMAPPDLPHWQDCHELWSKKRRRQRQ
T1 sequence (O75909 1-267 partner): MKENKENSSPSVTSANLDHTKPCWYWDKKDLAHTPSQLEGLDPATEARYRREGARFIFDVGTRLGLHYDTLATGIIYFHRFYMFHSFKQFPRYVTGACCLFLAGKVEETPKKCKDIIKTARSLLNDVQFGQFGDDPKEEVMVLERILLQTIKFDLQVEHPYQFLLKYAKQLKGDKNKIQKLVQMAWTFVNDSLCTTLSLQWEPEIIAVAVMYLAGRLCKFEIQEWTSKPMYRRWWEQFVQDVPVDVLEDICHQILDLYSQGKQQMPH
T1 sequence (Q16531 whole entry): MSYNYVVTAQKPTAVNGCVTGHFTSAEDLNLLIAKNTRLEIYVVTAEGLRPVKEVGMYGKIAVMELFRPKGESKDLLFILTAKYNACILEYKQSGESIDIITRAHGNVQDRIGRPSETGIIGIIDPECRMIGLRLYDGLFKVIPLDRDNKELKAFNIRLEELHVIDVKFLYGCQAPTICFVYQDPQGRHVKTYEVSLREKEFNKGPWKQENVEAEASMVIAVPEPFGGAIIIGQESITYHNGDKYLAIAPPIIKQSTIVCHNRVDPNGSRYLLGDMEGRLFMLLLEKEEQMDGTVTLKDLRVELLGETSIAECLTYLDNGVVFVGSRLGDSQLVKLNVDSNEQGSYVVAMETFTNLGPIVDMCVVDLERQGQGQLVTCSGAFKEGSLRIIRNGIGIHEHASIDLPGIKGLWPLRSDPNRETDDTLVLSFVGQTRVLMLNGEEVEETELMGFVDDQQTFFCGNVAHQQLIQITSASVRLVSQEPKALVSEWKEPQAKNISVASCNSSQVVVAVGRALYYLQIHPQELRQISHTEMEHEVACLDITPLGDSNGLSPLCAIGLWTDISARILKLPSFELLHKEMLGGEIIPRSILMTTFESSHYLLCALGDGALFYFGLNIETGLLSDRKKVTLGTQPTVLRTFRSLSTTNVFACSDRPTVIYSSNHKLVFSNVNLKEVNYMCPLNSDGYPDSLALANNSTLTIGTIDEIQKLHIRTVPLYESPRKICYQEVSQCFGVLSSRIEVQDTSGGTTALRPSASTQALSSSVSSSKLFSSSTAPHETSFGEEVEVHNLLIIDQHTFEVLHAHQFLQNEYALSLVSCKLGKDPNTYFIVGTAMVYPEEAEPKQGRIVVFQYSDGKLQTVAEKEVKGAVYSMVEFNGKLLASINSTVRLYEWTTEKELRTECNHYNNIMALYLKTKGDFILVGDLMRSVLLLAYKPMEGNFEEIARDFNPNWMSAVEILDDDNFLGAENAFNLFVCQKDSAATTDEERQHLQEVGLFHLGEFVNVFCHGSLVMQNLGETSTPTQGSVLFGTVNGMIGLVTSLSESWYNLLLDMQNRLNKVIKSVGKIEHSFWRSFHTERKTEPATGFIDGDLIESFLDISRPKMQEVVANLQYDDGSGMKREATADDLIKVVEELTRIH
Summary of the method: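 Read-out used a 70 μs delay to cut background fluorescence; TR-FRET signal taken as the 520 nm/490 nm emission ratio.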

[1] = tested on: cyclin K–eGFP degradation reporter; test: Cyclin K reporter stability analysis (dual-color cyclin K–eGFP reporter); assay type: cell-based, human; conditions: source data sheet correlations
Summary of the method: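 Cells (HEK293T–Cas9, reporter-expressing) at 1 × 10^6 ml^−1; 5 h compound or DMSO; flow cytometry; gMFI eGFP ÷ mCherry on round mCherry-positive events; normalized to 3 DMSO controls.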

HEK293T cells = test: Drug sensitivity assay (CellTiter-Glo viability) with or without MLN4924 pretreatment; assay type: cell-based, human; conditions: Supplementary Table 2; for EC50: Homo sapiens, HEK-293T, HEK293T viability, 72 h, compound alone, read-out: Cellular assays EC50; for Toxicity rescue: MLN4924-mediated cytotoxicity rescue, 10 µM used where n.d.
Summary of the method: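 HEK293T–Cas9 cells at 0.15 × 10^6 ml^−1 were treated with DMSO or 100 nM MLN4924 before plating. Test drugs were added 2 h later and exposure lasted 3 days. Viability was read by CellTiter-Glo luminescence and expressed relative to DMSO controls.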

CDK12–cyclin K = CDK12–cyclin K (Homo sapiens, UniProt Q9NYV4); test: Lanthascreen kinase binding assay, CDK12; conditions: for IC50: Supplementary Table 2, read-out: Lanthascreen IC50 [nM] CDK12; for Lanthascreen raw signal, sheet CDK12: series r1, duplicates
Sequence of CDK12–cyclin K (Q9NYV4 713-1052): as the sequence (Q9NYV4 713-1052 K965R) above, with R253K counted along it
Sequence of CDK12–cyclin K (O75909 1-267 partner limits assumed): as the sequence (O75909 1-267 partner) above
Method: (§1) Lanthascreen experiments were performed using commercially available reagents (Thermo Fisher) and according to the manufacturer’s instructions.

CDK9–cyclin T = biological target: T2, CDK9–cyclin T (Homo sapiens, UniProt P50750); test: Lanthascreen kinase binding assay, CDK9; conditions: for IC50: Supplementary Table 2, read-out: Lanthascreen IC50 [nM] CDK9; for Lanthascreen TR-FRET signal (raw ratio), sheet CDK9: first titration set (r1), duplicates
T2 construct: purchased Thermo Fisher
T2 sequence (P50750 whole entry): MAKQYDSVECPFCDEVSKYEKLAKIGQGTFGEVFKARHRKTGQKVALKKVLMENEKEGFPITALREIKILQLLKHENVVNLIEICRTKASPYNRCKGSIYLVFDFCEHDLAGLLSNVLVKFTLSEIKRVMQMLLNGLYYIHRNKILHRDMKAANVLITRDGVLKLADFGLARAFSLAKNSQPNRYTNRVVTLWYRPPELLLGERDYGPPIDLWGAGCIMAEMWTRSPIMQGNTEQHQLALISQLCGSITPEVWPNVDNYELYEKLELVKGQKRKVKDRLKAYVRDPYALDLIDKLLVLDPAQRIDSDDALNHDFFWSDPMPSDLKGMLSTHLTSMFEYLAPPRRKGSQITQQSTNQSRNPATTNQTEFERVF
T2 sequence (O60563 whole entry partner): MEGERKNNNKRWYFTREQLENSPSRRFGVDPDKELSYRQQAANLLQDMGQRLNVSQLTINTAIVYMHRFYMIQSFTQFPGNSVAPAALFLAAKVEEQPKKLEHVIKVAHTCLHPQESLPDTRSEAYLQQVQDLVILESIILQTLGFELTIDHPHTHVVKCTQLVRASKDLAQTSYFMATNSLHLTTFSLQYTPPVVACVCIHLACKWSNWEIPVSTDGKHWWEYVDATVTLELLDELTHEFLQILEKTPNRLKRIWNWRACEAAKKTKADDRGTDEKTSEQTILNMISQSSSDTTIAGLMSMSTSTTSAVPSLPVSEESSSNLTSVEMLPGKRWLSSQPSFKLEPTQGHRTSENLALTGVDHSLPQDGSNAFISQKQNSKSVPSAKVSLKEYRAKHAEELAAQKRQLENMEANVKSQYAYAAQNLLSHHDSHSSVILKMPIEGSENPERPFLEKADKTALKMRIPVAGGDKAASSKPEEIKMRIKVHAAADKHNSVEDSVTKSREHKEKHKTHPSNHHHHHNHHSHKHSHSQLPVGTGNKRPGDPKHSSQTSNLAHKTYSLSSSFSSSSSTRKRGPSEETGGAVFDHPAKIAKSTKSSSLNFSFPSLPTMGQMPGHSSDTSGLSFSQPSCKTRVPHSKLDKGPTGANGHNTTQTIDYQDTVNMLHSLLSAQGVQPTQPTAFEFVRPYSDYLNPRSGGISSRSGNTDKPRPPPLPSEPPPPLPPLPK
Method: as §1

CDK2–cyclin A = biological target: T3, CDK2–cyclin A (Homo sapiens, UniProt P24941); test: Lanthascreen kinase binding assay, CDK2; conditions: for Lanthascreen signal, sheet CDK2: raw replicates, experiment r1-r11
T3 construct: purchased Thermo Fisher
Method: as §1

[2] = in vitro complex formation, 50 nM CDK12–cyclin K, 100 nM DDB1, text and figures, read-out: TR-FRET EC50
[3] = source data sheet correlations, read-out: TR-FRET EC50
[4] = Supplementary Table 2, read-out: Lanthascreen IC50 [nM] CDK2

TR-FRET signal at compound concentration 0.468 nM (CDK12–cyclin K and DDB1): 0.3328 and 0.3098
TR-FRET signal at compound concentration 2.16 nM (CDK12–cyclin K and DDB1): 0.4001 and 0.3765
TR-FRET signal at compound concentration 3.6 nM (CDK12–cyclin K and DDB1): 0.5431 and 0.4961
TR-FRET signal at compound concentration 7.92001 nM (CDK12–cyclin K and DDB1): 0.8328 and 0.7643
TR-FRET signal at compound concentration 15.84 nM (CDK12–cyclin K and DDB1): 1.412 and 1.246
TR-FRET signal at compound concentration 30.96 nM (CDK12–cyclin K and DDB1): 2.416 and 2.183
TR-FRET signal at compound concentration 62.6401 nM (CDK12–cyclin K and DDB1): 3.349 and 3.281
TR-FRET signal at compound concentration 125.28 nM (CDK12–cyclin K and DDB1): 3.867 and 3.698
TR-FRET signal at compound concentration 244.8 nM (CDK12–cyclin K and DDB1): 3.9597 and 3.8541
TR-FRET signal at compound concentration 993.601 nM (CDK12–cyclin K and DDB1): 3.967 and 3.873
TR-FRET signal at compound concentration 2001.6 nM (CDK12–cyclin K and DDB1): 4.005 and 3.884
EC50 (CDK12–cyclin K and DDB1; [2]): 28 ± 1 nM
EC50 (CDK12–cyclin K and DDB1; sheet MOESM7, read-out: log TR-FRET EC50 (converted)): 27.6 nM
EC50 (CDK12–cyclin K and DDB1; [3]): 27.6 nM
DC50 ([1]; log value): 4 nM
DC50 ([1]; read-out: DC50): 4 nM
IC50 (CDK12–cyclin K): 134 nM
Lanthascreen raw signal, sheet CDK12 (CDK12–cyclin K; compound 1.02544 nM): 0.006087 and 0.009032
Lanthascreen raw signal, sheet CDK12 (CDK12–cyclin K; compound 3.15521 nM): 0.01061 and 0.007755
Lanthascreen raw signal, sheet CDK12 (CDK12–cyclin K; compound 9.46563 nM): 0.009135 and 0.006327
Lanthascreen raw signal, sheet CDK12 (CDK12–cyclin K; compound 31.5521 nM): 0.007705 and 0.007896
Lanthascreen raw signal, sheet CDK12 (CDK12–cyclin K; compound 99.3891 nM): 0.007199 and 0.007003
Lanthascreen raw signal, sheet CDK12 (CDK12–cyclin K; compound 315.521 nM): 0.006511 and 0.005836
Lanthascreen raw signal, sheet CDK12 (CDK12–cyclin K; compound 3155.21 nM): 0.006388 and 0.004562
Lanthascreen raw signal, sheet CDK12 (CDK12–cyclin K; compound 10002 nM): 0.005868 and 0.005096
IC50 (CDK9–cyclin T): 684 nM
Lanthascreen TR-FRET signal (raw ratio), sheet CDK9 (CDK9–cyclin T; compound 1.02544 nM): 0.01471 and 0.01339
Lanthascreen TR-FRET signal (raw ratio), sheet CDK9 (CDK9–cyclin T; compound 3.15521 nM): 0.01367 and 0.0125
Lanthascreen TR-FRET signal (raw ratio), sheet CDK9 (CDK9–cyclin T; compound 9.46563 nM): 0.01267 and 0.01475
Lanthascreen TR-FRET signal (raw ratio), sheet CDK9 (CDK9–cyclin T; compound 31.5521 nM): 0.01209 and 0.01181
Lanthascreen TR-FRET signal (raw ratio), sheet CDK9 (CDK9–cyclin T; compound 99.3891 nM): 0.01168 and 0.01283
Lanthascreen TR-FRET signal (raw ratio), sheet CDK9 (CDK9–cyclin T; compound 315.521 nM): 0.01175 and 0.01042
Lanthascreen TR-FRET signal (raw ratio), sheet CDK9 (CDK9–cyclin T; compound 3155.21 nM): 0.005807 and 0.004691
Lanthascreen TR-FRET signal (raw ratio), sheet CDK9 (CDK9–cyclin T; compound 10002 nM): 0.004107 and 0.003744
Lanthascreen signal, sheet CDK2 (CDK2–cyclin A; Compound 1.02544 nM): 0.009545 and 0.009565
Lanthascreen signal, sheet CDK2 (CDK2–cyclin A; Compound 3.15521 nM): 0.01077 and 0.01025
Lanthascreen signal, sheet CDK2 (CDK2–cyclin A; Compound 9.46563 nM): 0.009718 and 0.00939
Lanthascreen signal, sheet CDK2 (CDK2–cyclin A; Compound 31.5521 nM): 0.009822 and 0.01021
Lanthascreen signal, sheet CDK2 (CDK2–cyclin A; Compound 99.3891 nM): 0.009696 and 0.01058
Lanthascreen signal, sheet CDK2 (CDK2–cyclin A; Compound 315.521 nM): 0.0105 and 0.00942
Lanthascreen signal, sheet CDK2 (CDK2–cyclin A; Compound 3155.21 nM): 0.01064 and 0.008324
Lanthascreen signal, sheet CDK2 (CDK2–cyclin A; Compound 10002 nM): 0.005535 and 0.005659
IC50 (CDK2–cyclin A; Lanthascreen, average, Extended Data Fig. 8, read-out: CDK2 IC50): > 10000 nM
IC50 (CDK2–cyclin A; [4]): > 10000 nM
Structure (SMILES): CN1CCN(c2nc(NCc3nc4c(F)c(F)ccc4[nH]3)n3ncc(Br)c3n2)CC1 [DS71]
EC50 (HEK293T cells): 10 nM
Toxicity rescue (HEK293T cells): 610%

TR-FRET signal at compound concentration 0.468 nM (CDK12–cyclin K and DDB1): 0.3453 and 0.3314 and 0.2038 and 0.2054
TR-FRET signal at compound concentration 2.16 nM (CDK12–cyclin K and DDB1): 0.4522 and 0.4261 and 0.3132 and 0.3307
TR-FRET signal at compound concentration 3.6 nM (CDK12–cyclin K and DDB1): 0.6871 and 0.6344 and 0.5591 and 0.6106
TR-FRET signal at compound concentration 7.92001 nM (CDK12–cyclin K and DDB1): 1.2161 and 1.061 and 1.142 and 1.169
TR-FRET signal at compound concentration 15.84 nM (CDK12–cyclin K and DDB1): 2.149 and 1.974 and 2.1219 and 2.262
TR-FRET signal at compound concentration 30.96 nM (CDK12–cyclin K and DDB1): 3.31 and 3.181 and 2.938 and 2.942
TR-FRET signal at compound concentration 62.6401 nM (CDK12–cyclin K and DDB1): 3.363 and 3.323 and 3.061 and 3.125
TR-FRET signal at compound concentration 125.28 nM (CDK12–cyclin K and DDB1): 3.473 and 3.376 and 3.04 and 3.123
TR-FRET signal at compound concentration 244.8 nM (CDK12–cyclin K and DDB1): 3.475 and 3.275 and 3.121 and 3.153
TR-FRET signal at compound concentration 993.601 nM (CDK12–cyclin K and DDB1): 3.459 and 3.133 and 3.073
TR-FRET signal at compound concentration 2001.6 nM (CDK12–cyclin K and DDB1): 3.344 and 3.271 and 3.14 and 3.1113
EC50 (CDK12–cyclin K and DDB1; [2]): 12 ± 1 nM
EC50 (CDK12–cyclin K and DDB1; [3]): 12.2 nM
DC50 ([1]; read-out: DC50): 6 nM
IC50 (CDK12–cyclin K): 1 nM
Lanthascreen raw signal, sheet CDK12 (CDK12–cyclin K; compound 1.02544 nM): 0.008081 and 0.009101
Lanthascreen raw signal, sheet CDK12 (CDK12–cyclin K; compound 3.15521 nM): 0.008849 and 0.007319
Lanthascreen raw signal, sheet CDK12 (CDK12–cyclin K; compound 9.46563 nM): 0.006356 and 0.00835
Lanthascreen raw signal, sheet CDK12 (CDK12–cyclin K; compound 31.5521 nM): 0.005926 and 0.005481
Lanthascreen raw signal, sheet CDK12 (CDK12–cyclin K; compound 99.3891 nM): 0.005678 and 0.004673
Lanthascreen raw signal, sheet CDK12 (CDK12–cyclin K; compound 315.521 nM): 0.005163 and 0.006077
Lanthascreen raw signal, sheet CDK12 (CDK12–cyclin K; compound 3155.21 nM): 0.003862 and 0.004893
Lanthascreen raw signal, sheet CDK12 (CDK12–cyclin K; compound 10002 nM): 0.003963 and 0.004045
IC50 (CDK9–cyclin T): 104 nM
Lanthascreen TR-FRET signal (raw ratio), sheet CDK9 (CDK9–cyclin T; compound 1.02544 nM): 0.0138 and 0.01522
Lanthascreen TR-FRET signal (raw ratio), sheet CDK9 (CDK9–cyclin T; compound 3.15521 nM): 0.01223 and 0.01249
Lanthascreen TR-FRET signal (raw ratio), sheet CDK9 (CDK9–cyclin T; compound 9.46563 nM): 0.0129 and 0.01178
Lanthascreen TR-FRET signal (raw ratio), sheet CDK9 (CDK9–cyclin T; compound 31.5521 nM): 0.00952 and 0.01286
Lanthascreen TR-FRET signal (raw ratio), sheet CDK9 (CDK9–cyclin T; compound 99.3891 nM): 0.008274 and 0.008068
Lanthascreen TR-FRET signal (raw ratio), sheet CDK9 (CDK9–cyclin T; compound 315.521 nM): 0.006761 and 0.006072
Lanthascreen TR-FRET signal (raw ratio), sheet CDK9 (CDK9–cyclin T; compound 3155.21 nM): 0.003594 and 0.002711
Lanthascreen TR-FRET signal (raw ratio), sheet CDK9 (CDK9–cyclin T; compound 10002 nM): 0.003294 and 0.003353
Lanthascreen signal, sheet CDK2 (CDK2–cyclin A; Compound 1.02544 nM): 0.009384 and 0.009817
Lanthascreen signal, sheet CDK2 (CDK2–cyclin A; Compound 3.15521 nM): 0.009333 and 0.009829
Lanthascreen signal, sheet CDK2 (CDK2–cyclin A; Compound 9.46563 nM): 0.009654 and 0.01088
Lanthascreen signal, sheet CDK2 (CDK2–cyclin A; Compound 31.5521 nM): 0.008522 and 0.009526
Lanthascreen signal, sheet CDK2 (CDK2–cyclin A; Compound 99.3891 nM): 0.01016 and 0.009968
Lanthascreen signal, sheet CDK2 (CDK2–cyclin A; Compound 315.521 nM): 0.008698 and 0.009504
Lanthascreen signal, sheet CDK2 (CDK2–cyclin A; Compound 3155.21 nM): 0.005132 and 0.004872
Lanthascreen signal, sheet CDK2 (CDK2–cyclin A; Compound 10002 nM): 0.003933 and 0.00458
IC50 (CDK2–cyclin A; [4]): 1060 nM
Structure (SMILES): Fc1ccc2[nH]c(CNc3nc(N4CCOCC4)nc4c(Br)cnn34)nc2c1F [DS72]
EC50 (HEK293T cells): 6 nM
Toxicity rescue (HEK293T cells): 533%
